In patent publication US20240025922A1, “TETRAHYDROPYRIDO[3,4-d]PYRIMIDINES AS HPK1 INHIBITORS” (Merck Patent GmbH, priority 2022, published 2024):
pIC50: −log10 of the molar value. Read-outs that look alike come from different tables or passages of the source.

Legend:
[1] = target: full-length human HPK1 (MAP4K1) (Homo sapiens (Human), UniProt Q92918); test: HPK1 Kinase Assay (Biochemical Assay), ADP-Glo; conditions: GST-HPK1 3.2 nM, 10 μM ATP, MBP substrate, read-out: HPK1 enzymatic IC50
Outline: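 GST-tagged full-length human HPK1 was expressed in Sf21 cells and used at 3.2 nM in 50 mM HEPES pH 7.5, 10 mM MgCl2, 2 mM DTT, 12.5 mM O-glycerophosphate, 0.01% BSA and 0.02% Brij-35. It was preincubated 15 min with 10-point compound dilutions, and the reaction was started with a start mix of 10 μM ATP and 3.235 μM MBP. After 120 min, ADP was measured by ADP-Glo luminescence and IC50 derived.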

[2] = target: HPK1 (SLP76 phosphorylation at Ser376 in Jurkat and EL-4 cells) (Homo sapiens, UniProt Q92918); type: cell-based
Outline: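 Jurkat (human) and EL-4 (mouse) cells, endogenous HPK1/SLP76, preincubated 60 min with compounds (10-point dilution), then stimulated with αCD3/αCD28 beads at 37 °C: 15 min for Jurkat, 30 min for EL-4. Ser376 pSLP76 in lysates read by AlphaLISA (Jurkat) or HTRF (EL-4); % inhibition and IC50 fitted.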

[3] = αCD3/αCD28 Dynabeads stimulated cells, pSLP76 (Ser376) detection; read-out: HPK1 pSLP76 IC50
[4] = read-out: HPK1 pSLP76 IC50; αCD3/αCD28 Dynabeads stimulated cells, pSLP76 (Ser376) detection

HPK1 (SLP76 phosphorylation at Ser376 in Jurkat and EL-4 cells), sequence (Q92918 whole entry, looked up): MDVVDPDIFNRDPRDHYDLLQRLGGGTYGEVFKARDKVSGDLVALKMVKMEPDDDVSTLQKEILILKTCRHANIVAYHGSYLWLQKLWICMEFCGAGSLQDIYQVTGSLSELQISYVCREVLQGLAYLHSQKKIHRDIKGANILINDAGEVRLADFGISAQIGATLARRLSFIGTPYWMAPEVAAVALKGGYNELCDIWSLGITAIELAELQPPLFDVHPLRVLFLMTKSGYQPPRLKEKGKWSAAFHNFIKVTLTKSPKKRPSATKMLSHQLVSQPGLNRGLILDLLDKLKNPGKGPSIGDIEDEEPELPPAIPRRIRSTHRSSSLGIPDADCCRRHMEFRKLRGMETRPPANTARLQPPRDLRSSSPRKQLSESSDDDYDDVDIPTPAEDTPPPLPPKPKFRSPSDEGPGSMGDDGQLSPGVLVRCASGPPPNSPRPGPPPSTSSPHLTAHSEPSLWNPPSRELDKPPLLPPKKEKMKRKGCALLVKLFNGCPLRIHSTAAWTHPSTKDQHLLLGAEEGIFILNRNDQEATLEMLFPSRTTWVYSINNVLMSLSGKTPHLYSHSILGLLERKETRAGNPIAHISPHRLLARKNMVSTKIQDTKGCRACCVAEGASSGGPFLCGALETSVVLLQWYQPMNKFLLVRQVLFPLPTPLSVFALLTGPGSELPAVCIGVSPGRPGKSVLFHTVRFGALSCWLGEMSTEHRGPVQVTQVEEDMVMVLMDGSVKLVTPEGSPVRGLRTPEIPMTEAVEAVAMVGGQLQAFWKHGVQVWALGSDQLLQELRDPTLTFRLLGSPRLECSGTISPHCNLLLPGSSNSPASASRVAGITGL
full-length human HPK1 (MAP4K1), sequence (Q92918 whole entry): as the sequence (Q92918 whole entry, looked up) above

Row | Compound | pIC50 [1] | pIC50 [2, 3] | pIC50 [2, 4]
1 | CNCc1ccc(Nc2ncc3c(n2)CN(c2cnc4c(c2C)NCCO4)CC3)cc1 [Example 53, 7-(8-methyl-2,3-dihydro-1H-pyrido[2,3-b][1,4]oxazin-7-yl)-N-(4-((methylamino)methyl)phenyl)-5,6,7,8-tetrahydropyrido[3,4-d]pyrimidin-2-amine] | > 7.00 | 6.00 to 6.30 | –
2 | Cc1c(N2CCc3cnc(Nc4ccc(N5CCN(C)CC5)cc4)nc3C2)cnc2c1NCCO2 [Example 55, 7-(8-methyl-2,3-dihydro-1H-pyrido[2,3-b][1,4]oxazin-7-yl)-N-(4-(4-methylpiperazin-1-yl)phenyl)-5,6,7,8-tetrahydropyrido[3,4-d]pyrimidin-2-amine] | > 7.00 | – | 6.00 to 6.30
3 | Cc1c(N2CCc3cnc(Nc4ccc(NC(=O)CN(C)C)nc4)nc3C2)cnc2c1NCCO2 [Example 56, 2-(dimethylamino)-N-(5-((7-(8-methyl-2,3-dihydro-1H-pyrido[2,3-b][1,4]oxazin-7-yl)-5,6,7,8-tetrahydropyrido[3,4-d]pyrimidin-2-yl)amino)pyridin-2-yl)acetamide] | > 7.00 | – | > 6.30
4 | Cc1c(N2CCc3cnc(Nc4ccc(CS(C)(=O)=O)cc4)cc3C2)cnc2c1NCCO2 [Example 57, N-[4-(methanesulfonylmethyl)phenyl]-6-{8-methyl-1H,2H,3H-pyrido[2,3-b][1,4]oxazin-7-yl}-5,6,7,8-tetrahydro-2,6-naphthyridin-3-amine] | > 7.00 | > 6.30 | –
5 | Cc1c(N2CCc3cnc(Nc4ccc(CS(C)(=O)=O)nc4)nc3C2)cnc2c1NCCO2 [Example 58, 6-(methanesulfonylmethyl)-N-(7-{8-methyl-1H,2H,3H-pyrido[2,3-b][1,4]oxazin-7-yl}-5H,6H,7H,8H-pyrido[3,4-d]pyrimidin-2-yl)pyridin-3-amine] | > 7.00 | > 6.30 | –
6 | Cc1c(N2CCc3cnc(Nc4ccc(CN(C)C)cc4)nc3C2)cnc2c1NCCO2 [Example 59, N-{4-[(dimethylamino)methyl]phenyl}-7-{8-methyl-1H,2H,3H-pyrido[2,3-b][1,4]oxazin-7-yl}-5H,6H,7H,8H-pyrido[3,4-d]pyrimidin-2-amine; formic acid] | > 7.00 | < 6.00 | –
7 | Cc1c(N2CCc3cnc(Nc4cccc(CN5CCOCC5)c4)nc3C2)cnc2c1NCCO2 [Example 60, 7-{8-methyl-1H,2H,3H-pyrido[2,3-b][1,4]oxazin-7-yl}-N-{3-[(morpholin-4-yl)methyl]phenyl}-5H,6H,7H,8H-pyrido[3,4-d]pyrimidin-2-amine] | > 7.00 | – | 6.00 to 6.30
8 | Cc1c(N2CCc3cnc(Nc4cccc(N5CCN(C)CC5)c4)nc3C2)cnc2c1NCCO2 [Example 61, 7-{8-methyl-1H,2H,3H-pyrido[2,3-b][1,4]oxazin-7-yl}-N-[3-(4-methylpiperazin-1-yl)phenyl]-5H,6H,7H,8H-pyrido[3,4-d]pyrimidin-2-amine] | > 7.00 | – | 6.00 to 6.30
9 | CS(=O)(=O)Cc1ccc(Nc2ncc3c(n2)CN(c2cnc4c(c2Cl)NCCO4)CC3)cc1 [Example 63, 7-{8-chloro-1H,2H,3H-pyrido[2,3-b][1,4]oxazin-7-yl}-N-[4-(methanesulfonylmethyl)phenyl]-5H,6H,7H,8H-pyrido[3,4-d]pyrimidin-2-amine] | > 7.00 | > 6.30 | –
10 | Cc1c(N2CCc3cnc(Nc4cccc(CN5CCN(C)CC5)c4)nc3C2)cnc2c1NCCO2 [Example 66, 7-{8-methyl-1H,2H,3H-pyrido[2,3-b][1,4]oxazin-7-yl}-N-{3-[(4-methylpiperazin-1-yl)methyl]phenyl}-5H,6H,7H,8H-pyrido[3,4-d]pyrimidin-2-amine] | > 7.00 | 6.00 to 6.30 | –
11 | Cc1c(N2CCc3cnc(Nc4ccnc(C(C)(C)O)c4)nc3C2)cnc2c1NCCO2 [Example 67, 2-{4-[(7-{8-methyl-1H,2H,3H-pyrido[2,3-b][1,4]oxazin-7-yl}-5H,6H,7H,8H-pyrido[3,4-d]pyrimidin-2-yl)amino]pyridin-2-yl}propan-2-ol] | > 7.00 | 6.00 to 6.30 | –
12 | Cc1c(N2CCc3cnc(Nc4cc5n(n4)CC(=O)N(C)CC5)cc3C2)cnc2c1NCCO2 [Example 68, 6-methyl-2-[(6-{8-methyl-1H,2H,3H-pyrido[2,3-b][1,4]oxazin-7-yl}-5,6,7,8-tetrahydro-2,6-naphthyridin-3-yl)amino]-4H,5H,6H,7H,8H-pyrazolo[1,5-d][1,4]diazepin-7-one] | > 7.00 | > 6.30 | –
13 | Cc1c(N2CCc3cnc(Nc4ccc(CS(C)(=O)=O)cc4)nc3C2)cnc2c1NCCO2 [Example 69, N-[4-(methanesulfonylmethyl)phenyl]-7-{8-methyl-1H,2H,3H-pyrido[2,3-b][1,4]oxazin-7-yl}-5H,6H,7H,8H-pyrido[3,4-d]pyrimidin-2-amine] | > 7.00 | > 6.30 | –
14 | COC(=O)Nc1ccc(Nc2ncc3c(n2)CN(c2cnc4c(c2C)NCCO4)CC3)cc1 [Example 71, methyl N-{4-[(7-{8-methyl-1H,2H,3H-pyrido[2,3-b][1,4]oxazin-7-yl}-5H,6H,7H,8H-pyrido[3,4-d]pyrimidin-2-yl)amino]phenyl}carbamate] | > 7.00 | > 6.30 | –
15 | Cc1c(N2CCc3cnc(Nc4ccnc(N5CCN(C)CC5)c4)nc3C2)cnc2c1NCCO2 [Example 72, N-(7-{8-methyl-1H,2H,3H-pyrido[2,3-b][1,4]oxazin-7-yl}-5H,6H,7H,8H-pyrido[3,4-d]pyrimidin-2-yl)-2-(4-methylpiperazin-1-yl)pyridin-4-amine] | > 7.00 | > 6.30 | –
16 | CC(=O)Nc1ccc(Nc2ncc3c(n2)CN(c2cnc4c(c2C)NCCO4)CC3)cn1 [Example 73, N-(5-((7-(8-methyl-2,3-dihydro-1H-pyrido[2,3-b][1,4]oxazin-7-yl)-5,6,7,8-tetrahydropyrido[3,4-d]pyrimidin-2-yl)amino)pyridin-2-yl)acetamide] | > 7.00 | 6.00 to 6.30 | –
17 | CNC(=O)c1ccc(Nc2ncc3c(n2)CN(c2cnc4c(c2C)NCCO4)CC3)cc1F [Example 74, 2-fluoro-N-methyl-4-((7-(8-methyl-2,3-dihydro-1H-pyrido[2,3-b][1,4]oxazin-7-yl)-5,6,7,8-tetrahydropyrido[3,4-d]pyrimidin-2-yl)amino)benzamide] | > 7.00 | > 6.30 | –
18 | Cc1c(N2CCc3cnc(Nc4ccnc(C5CCOCC5)c4)nc3C2)cnc2c1NCCO2 [Example 76, 7-(8-methyl-2,3-dihydro-1H-pyrido[2,3-b][1,4]oxazin-7-yl)-N-(2-(tetrahydro-2H-pyran-4-yl)pyridin-4-yl)-5,6,7,8-tetrahydropyrido[3,4-d]pyrimidin-2-amine] | > 7.00 | > 6.30 | –
19 | Cc1c(N2CCc3cnc(Nc4ccnc(N5CCOCC5)c4)nc3C2)cnc2c1NCCO2 [Example 77, 7-(8-methyl-2,3-dihydro-1H-pyrido[2,3-b][1,4]oxazin-7-yl)-N-(2-morpholinopyridin-4-yl)-5,6,7,8-tetrahydropyrido[3,4-d]pyrimidin-2-amine] | > 7.00 | > 6.30 | –
20 | Cc1c(N2CCc3cnc(Nc4cccc(S(C)(=O)=O)c4)nc3C2)cnc2c1NCCO2 [Example 79, 7-(8-methyl-2,3-dihydro-1H-pyrido[2,3-b][1,4]oxazin-7-yl)-N-(3-(methylsulfonyl)phenyl)-5,6,7,8-tetrahydropyrido[3,4-d]pyrimidin-2-amine] | > 7.00 | > 6.30 | –
21 | CCc1cc(Nc2ncc3c(n2)CN(c2cnc4c(c2C)NCCO4)CC3)ccc1N1CCC(O)CC1 [Example 80, 1-(2-ethyl-4-((7-(8-methyl-2,3-dihydro-1H-pyrido[2,3-b][1,4]oxazin-7-yl)-5,6,7,8-tetrahydropyrido[3,4-d]pyrimidin-2-yl)amino)phenyl)piperidin-4-ol] | > 7.00 | 6.00 to 6.30 | –
22 | Cc1c(N2CCc3cnc(Nc4ccc5c(c4)CS(=O)(=O)C5)nc3C2)cnc2c1NCCO2 [Example 81, 5-((7-(8-methyl-2,3-dihydro-1H-pyrido[2,3-b][1,4]oxazin-7-yl)-5,6,7,8-tetrahydropyrido[3,4-d]pyrimidin-2-yl)amino)-1,3-dihydrobenzo[c]thiophene 2,2-dioxide] | > 7.00 | > 6.30 | –
23 | Cc1c(N2CCc3cnc(Nc4cccc(C(C)(C)O)c4)nc3C2)cnc2c1NCCO2 [Example 82, 2-(3-((7-(8-methyl-2,3-dihydro-1H-pyrido[2,3-b][1,4]oxazin-7-yl)-5,6,7,8-tetrahydropyrido[3,4-d]pyrimidin-2-yl)amino)phenyl)propan-2-ol] | > 7.00 | > 6.30 | –
24 | COCCOc1ccc(Nc2ncc3c(n2)CN(c2cnc4c(c2C)NCCO4)CC3)cc1CO [Example 83, (2-(2-methoxyethoxy)-5-((7-(8-methyl-2,3-dihydro-1H-pyrido[2,3-b][1,4]oxazin-7-yl)-5,6,7,8-tetrahydropyrido[3,4-d]pyrimidin-2-yl)amino)phenyl)methanol] | > 7.00 | 6.00 to 6.30 | –
25 | Cc1c(N2CCc3cnc(Nc4ccc5c(c4)CCOC5)nc3C2)cnc2c1NCCO2 [Example 84, N-(isochroman-6-yl)-7-(8-methyl-2,3-dihydro-1H-pyrido[2,3-b][1,4]oxazin-7-yl)-5,6,7,8-tetrahydropyrido[3,4-d]pyrimidin-2-amine] | > 7.00 | > 6.30 | –
